Assay results taken from US8487121B2, “Chromane derivatives as TRPV3 modulators” (Glenmark Pharmaceuticals S.A., priority 2007, dated 2013).

Molecular target: T1, Human TRPV3 (Homo sapiens, UniProt Q8NET8)
T1 construct: expressed in transfected cells; host or cells: CHO cells (G-418 selected)
T1 sequence (Q8NET8 1-790): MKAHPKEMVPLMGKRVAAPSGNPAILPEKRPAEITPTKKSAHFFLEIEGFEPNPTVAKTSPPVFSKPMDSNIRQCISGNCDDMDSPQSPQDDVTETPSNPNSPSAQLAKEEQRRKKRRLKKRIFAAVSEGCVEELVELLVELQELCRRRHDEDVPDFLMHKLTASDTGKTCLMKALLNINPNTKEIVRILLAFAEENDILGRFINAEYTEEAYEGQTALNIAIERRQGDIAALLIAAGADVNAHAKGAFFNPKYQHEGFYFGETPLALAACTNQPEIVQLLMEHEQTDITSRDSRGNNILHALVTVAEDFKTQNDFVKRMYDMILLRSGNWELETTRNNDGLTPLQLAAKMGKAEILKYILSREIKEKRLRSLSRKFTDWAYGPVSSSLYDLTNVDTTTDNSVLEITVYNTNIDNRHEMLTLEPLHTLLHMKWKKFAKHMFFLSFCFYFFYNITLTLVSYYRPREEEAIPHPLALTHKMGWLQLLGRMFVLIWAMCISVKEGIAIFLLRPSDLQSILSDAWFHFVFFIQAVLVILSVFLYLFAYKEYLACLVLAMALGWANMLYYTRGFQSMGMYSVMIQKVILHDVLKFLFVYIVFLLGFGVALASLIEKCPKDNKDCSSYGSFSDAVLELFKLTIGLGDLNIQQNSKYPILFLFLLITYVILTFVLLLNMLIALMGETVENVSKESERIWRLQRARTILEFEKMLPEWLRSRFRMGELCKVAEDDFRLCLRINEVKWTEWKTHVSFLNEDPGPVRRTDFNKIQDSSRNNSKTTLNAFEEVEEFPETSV
Assay: 45Calcium uptake assay: inhibition of 2-APB induced cellular uptake of radioactive calcium
Format: cell-based
Settings: human TRPV3 expressing CHO cells, 2-APB 500 μM; for inhibition at 1 µM: 1.0 μM compound, read-out: Percentage inhibition at 1.0 μM; for inhibition at 10 µM: 10.0 μM compound, read-out: Percentage inhibition at 10.0 μM
Source text: The illustrative examples of the present invention are screened for TRPV3 activity according to a modified procedure described in Toth, A. et al. Life Sciences (2003), 73, 487-498. The screening of the compounds can be carried out by other methods and procedures known to a person skilled in the art. Such screening methods may be found in Hu, H-Z., et al. J. Biol. Chem. (2004), 279, 35741-35748; Smith, G. D et al. Nature (2002), 418, 186-190 and Peier, A. M., et al. Science (2002), 296, 2046-2049.
Screening for TRPV3 Antagonist Using the ^45Calcium Uptake Assay:
The inhibition of TRPV3 receptor activation was followed as inhibition of 2-APB induced cellular uptake of radioactive calcium. Test compounds were dissolved in DMSO to prepare 20 mM stock and then diluted using plain medium with 0.1% BSA and 1.8 mM CaCl2 to get desired concentration. Final concentration of DMSO in the reaction was 0.5% (v/v). Human TRPV3 expressing CHO cells were grown in F-12 DMEM medium with 10% FBS, 1% penicillin-streptomycin solution, 400 μg/ml of G-418. Cells were seeded 24 h prior to the assay in 96 well plates so as to get ˜50,000 cells per well on the day of experiment. Cells were treated with test compounds for 10 minutes followed by addition of 2-APB at a final concentration of 500 μM and 5 μCi/ml ^45Ca^+2 for 4 minutes. Cells were washed and lysed using buffer containing 1% Triton X-100, 0.1% deoxycholate and 0.1% SDS. Radioactivity in the lysate was measured in Packardt Top count after addition of liquid scintillant.
Concentration response curves were plotted as a % of maximal response obtained in the absence of test antagonist. IC50 value was calculated from concentration response curve by nonlinear regression analysis using GraphPad PRISM software.
Percentage inhibition at concentrations of 1.0 μM and 10.0 μM are given in the table along with IC50 (nM) values for selected examples.

inhibition at 1 µM [%] | inhibition at 10 µM [%] | IC50 [µM] | SMILES
29.4 | 46.1 | – | O=C(Cc1noc2ccccc12)N[C@@H]1CC2(CCC2)Oc2ccc(Cl)cc21 [Example 26]
5.3 | 75.9 | – | O=C(Cc1noc2ccccc12)N[C@H]1CC2(CCC2)Oc2ccc(Cl)cc21 [Example 27]
58 | 84.3 | – | O=C(CCc1ccccc1OC1CCCC1)NC1CC2(CCC2)Oc2ccc(Cl)cc21 (stereo not drawn) [Example 28, N-(6-Chloro-3,4-dihydrospiro[chromene-2,1′-cyclobutan]-4-yl)-3-(2-cyclopentyloxyphenyl)propanamide]
43.6 | 88.4 | – | O=C(CCc1cccc(OC2CCCC2)c1)N[C@@H]1CC2(CCC2)Oc2ccc(Cl)cc21 [Example 29, N-[(4R)-6-chloro-3,4-dihydrospiro[chromene-2,1′-cyclobutan]-4-yl]-3-(3-cyclopentyloxy)phenyl propanamide]
46.8 | 80.6 | – | O=C(CCc1cccc(OC2CCCC2)c1)N[C@H]1CC2(CCC2)Oc2ccc(Cl)cc21 [Example 30, N-[(4S)-6-chloro-3,4-dihydrospiro[chromene-2,1′-cyclobutan]-4-yl]-3-(3-cyclopentyloxy)phenylpropanamide]
78.6 | 97.4 | 0.5 to 1 | O=C(CCc1ccccc1OC1CCCC1)N[C@@H]1CC2(CCC2)Oc2c(Cl)cccc21 [Example 31, N-1(4R)-(8-Chloro-3,4-dihydrospiro[chromene-2,1′-cyclobutan]-4-yl)-3-(2-cyclopentyloxy)phenyl propanamide]
24.8 | 43.9 | – | O=C(CCc1ccccc1OC1CCCC1)N[C@H]1CC2(CCC2)Oc2c(Cl)cccc21 [Example 32]
13.5 | 33.9 | – | O=C(CCc1ccccc1OC1CCCC1)N[C@H]1CC2(CCC2)Oc2cc(OCc3ccccc3)ccc21 [Example 33, 7-Benzyloxy-N-(3,4-dihydrospiro[chromene-2,1′-cyclobutan]-4-yl)-3-(2-cyclopentylxoyphenyl)propanamide]
5.69 | 77.1 | – | CC(C)S(=O)(=O)Nc1ccccc1CCC(=O)NC1CC2(CCC2)Oc2ccc(Cl)cc21 (stereo not drawn) [Example 34, N-(6-Chloro-3,4-dihydrospiro[chromene-2,1′-cyclobutan]-4-yl)-3-{2-[(isopropylsulfonyl)amino]phenyl}propanamide]
44.8 | 97.6 | – | O=C(CCc1ccccc1-c1ccccn1)NC1CC2(CCC2)Oc2ccc(Cl)cc21 (stereo not drawn) [Example 35, N-(6-Chloro-3,4-dihydrospiro[chromene-2,1′-cyclobutan]-4-yl)-3-(2-pyridin-2-ylphenyl) propanamide]
46.3 | 95.7 | 0.5 to 1 | COc1cccc(CCC(=O)NC2CC3(CCC3)Oc3ccccc32)c1OC1CCCC1 (stereo not drawn) [Example 37, N-(3,4-Dihydrospiro[chromene-2,1′-cyclobutan]-4-yl)-3-(2-cyclopentyloxy-3-methoxy)phenylpropanamide]
23.8 | 82.7 | – | COc1cccc(CCC(=O)NC2CC3(CCC3)Oc3ccc(Cl)cc32)c1OC (stereo not drawn) [Example 38, N-(6-Chloro-3,4-dihydrospiro[chromene-2,1′-cyclobutan]-4-yl)-3-(2,3-dimethoxy)-phenylpropanamide]
73.8 | 97.5 | 0.5 to 1 | COc1cccc(CCC(=O)NC2CC3(CCC3)Oc3ccc(Cl)cc32)c1OC(C)C (stereo not drawn) [Example 39, N-(6-Chloro-3,4-dihydrospiro[chromene-2,1′-cyclobutan]-4-yl)-3-(2-isopropoxy-3-methoxy)phenylpropanamide]
6.8 | 93.5 | – | COc1ccc(CCC(=O)NC2CC3(CCC3)Oc3ccc(Cl)cc32)cc1Cl (stereo not drawn) [Example 40, N-(6-Chloro-3,4-dihydrospiro[chromene-2,1′-cyclobutan]-4-yl)-3-(3-chloro-4-methoxy)phenylpropanamide]
49 | 96.4 | 0.5 to 1 | COc1cccc(CCC(=O)NC2CC3(CCC3)Oc3ccc(Cl)cc32)c1OCC1CC1 (stereo not drawn) [Example 41, N-(6-Chloro-3,4-dihydrospiro[chromene-2,1′-cyclobutan]-4-yl)-3-(2-cyclopropylmethoxy-3-methoxy)phenylpropanamide]
47.2 | 95.1 | 0.5 to 1 | COc1cccc(CCC(=O)N[C@@H]2CC3(CCC3)Oc3ccc(Cl)cc32)c1OC1CCCC1 [Example 42]
64.6 | 91.7 | 0.5 to 1 | COc1cccc(CCC(=O)N[C@H]2CC3(CCC3)Oc3ccc(Cl)cc32)c1OC1CCCC1 [Example 43]
50.8 | 88.8 | – | CCOc1cccc(CCC(=O)NC2CC3(CCC3)Oc3ccc(Cl)cc32)c1OC1CCCC1 (stereo not drawn) [Example 44, N-(6-Chloro-3,4-dihydrospiro[chromene-2,1′-cyclobutan]-4-yl)-3-(2-cyclopentyloxy-3-ethoxy)phenylpropanamide]
59.2 | 94.8 | 0.5 to 1 | COc1cccc(CCC(=O)NC2CC3(CCC3)Oc3cc(Cl)ccc32)c1OC1CCCC1 (stereo not drawn) [Example 45, N-(7-Chloro-3,4-dihydrospiro[chromene-2,1′-cyclobutan]-4-yl)-3-(2-cyclopentyloxy-3-methoxy)phenylpropanamide]
53.2 | 99.7 | 0.5 to 1 | CCOc1c(CCC(=O)NC2CC3(CCC3)Oc3c(Cl)cccc32)cccc1OC (stereo not drawn) [Example 46, N-(8-Chloro-3,4-dihydrospiro[chromene-2,1′-cyclobutan]-4-yl)-3-(2-ethoxy-3-methoxy)phenylpropanamide]
– | – | < 0.5 | COc1cccc(CCC(=O)N[C@@H]2CC3(CCC3)Oc3c(Cl)cccc32)c1OC1CCCC1 [Example 47]
– | – | 0.5 to 1 | COc1cccc(CCC(=O)N[C@H]2CC3(CCC3)Oc3c(Cl)cccc32)c1OC1CCCC1 [Example 48]
35.4 | 70.1 | – | COc1cccc(CCC(=O)NC2CC3(CCC3)Oc3cc(C)c(Cl)cc32)c1OC1CCCC1 (stereo not drawn) [Example 49, N-(6-Chloro-7-methyl-3,4-dihydrospiro[chromene-2,1′-cyclobutan]-4-yl)-3-(2-cyclo-pentyloxy-3-methoxy)phenylpropanamide]
52.8 | 77.6 | 0.5 to 1 | COc1cccc(CCC(=O)NC2CC3(CCC3)Oc3cccc(OCc4ccccc4)c32)c1OC1CCCC1 (stereo not drawn) [Example 50, N-(5-Benzyloxy-3,4-dihydrospiro[chromene-2,1′-cyclobutan]-4-yl)-3-(2-cyclopentyloxy-3-methoxy)phenylpropanamide]
37.1 | 86.7 | 1 to 2 | COc1cccc(CCC(=O)NC2CC3(CCC3)Oc3cccc(O)c32)c1OC1CCCC1 (stereo not drawn) [Example 51, N-(5-Hydroxy-3,4-dihydrospiro[chromene-2,1′-cyclobutan]-4-yl)-3-(2-cyclopentyloxy-3-methoxy)phenylpropanamide]
39.6 | 92.5 | – | COc1cccc(CCC(=O)NC2CC3(CCC3)Oc3cccc(OC)c32)c1OC1CCCC1 (stereo not drawn) [Example 52, N-(3,4-Dihydrospiro[chromene-2,1′-cyclobutan]-5-methoxy-4-yl)-3-(2-cyclopentyloxy-3-methoxy)phenylpropanamide]
